Test results taken from patent EP0005541A2, “Substituted piperidine, morpholine or piperidone derivatives, fungicides containing these compounds, process for their preparation and their use, and the use of these compounds as fungicides” (F. HOFFMANN-LA ROCHE & CO. Aktiengesellschaft, priority 1978, dated 1979).

What was measured:
Format in all cases: in vivo
Erysiphe graminis = Erysiphe graminis protective spray test on barley seedlings (greenhouse); details: barley seedlings HERTA, infected 2 days after spraying, read 7 days after infection vs infected untreated control
Procedure: 30-40 Gerstenkeimlinge der Sorte HERTA (verteilt auf 2 Töpfe mit 7 cm Durchmesser) wurden jeweils im Einblattstadium mit einer wässerigen Dispersion der Testsubstanz (wie allgemein üblich aufbereitet als Spritzpulver) allseitig gründlich besprüht und anschliessend bei 22-26°C, 80% rel. Luftfeuchtigkeit und einer Photoperiode von 16 Stunden im Gewächshaus weiterkultiviert. Die Infektion erfolgte 2 Tage nach der Behandlung durch Bestäuben der Versuchspflanzen mit Kon dien von Erysiphe graminis. 7 Tage nach der Infektion wurde ::ie durch Erysiphe graminis befallene Blattfläche in % gegenüber derjenigen der infizierten, nicht behandelten Kontrolle ermittelt. Die Resultate sind in Tabelle I zusammengefasst.

Puccinia coronata = Puccinia coronata protective spray test on oat seedlings; details: oat seedlings FLAEMINGSKRONE, infected 2 days after spraying, read on day 9 after infection vs infected untreated control
Procedure: 30-40 Haferkeimlinge der Sorte FLAEMINGSKRONE (verteilt auf 2 Töpfe mit 7 cm Durchmesser) wurden jeweils im Einblattstadium mit einer wässerigen Dispersion der Testsubstanz (wie allgemein üblich aufbereitet als Spritzpulver) allseitig gründlich besprüht und anschliessend in einer Klimakabine bei 17°C. 70-80% rel. Luftfeuchtigkeit und einer Photoperiode von 16 Stunden weiterkultiviert. Nach 2 Tagen erfolgte die Infektion der Versuchspflanzen durch Besprühen mit in dest. Wasser suspendierten Uredosporen (300'000 Sporen/ml) vor. Puccinia coronata. Danach wurden die Pflanzen während 24 Stunden bei 20°C und einer Luftfeuchtigkeit von über 90W im Dunkeln inkubiert und anschliessend in ein Gewächshaus mit einer Temperatur von 22-26 °C, einer rel. Luftfeuchtigkeit von 70% und einer Photoperiode von 18 Stunden übe führt. Am 9. Tage nach der Infektion wurde die durch Pucrinia coronata befallene Blattfläche in % gegenüber der infizierten, nicht behandelten Kontrolle ermittelt. Die ResLltate sind in Tabelle I zusammengefasst.

Venturia inaequalis = Venturia inaequalis protective spray test on apple seedlings; details: infected 2 days after spraying, read on day 13 after infection vs infected untreated control
Procedure: 3 Apfelpflänzchen (verteilt auf 3 Töpfe mit 5 cm Durchmesser) aus Samen der Sorte GOLDIN DELICIOUS wurden im 4- bis 5-Blattstadium mit einer wässerigen Dispersion der Testsubstanz (wie allgemein üblich aufbereitet als Spritzpulver) allseitig gründlich besprüht. Die behandelten Pflanzen wurden anschliessend während 2 Tagen bei 17°C, 70-80%rel. Luftfeuchtigkeit und einer Photoperiode von 14 Stunden weiterkultiviert. Danach erfolgte die Infektion der Apfelsämlinge durch Besprühen mit in dest. Wasser suspendierten Konidien (200'000 Konidien/ml) von Venturia inaequalis. Nach der Infektion wurden die Pflanzen im Dunkeln während 48 Stunden bei 16-18°C und einer rel. Luftfeuchtigkeit von über 90% inkubiert und anschliessend in ein schattiertes Gewächshaus mit einer Temperatur von 22-26 °C und einer rel. Luftfeuchtigkeit von über 80% überführt. Am 13. Tage nach der Infektion erfolgte die Ermittlung der durch Venturia inaequalis befallenen Blattfläche gegenüber der infizierten, nicht behandelten Kontrolle. Die Resultate sind in Tabelle II zusammengefasst.

Compound | Wirkung (in %) Erysiphe graminis (Erysiphe graminis; 5 mg/l Spritzbrühe) | Wirkung (in %) Erysiphe graminis (Erysiphe graminis; 16 mg/l Spritzbrühe) | Wirkung (in %) Erysiphe graminis (Erysiphe graminis; 50 mg/l Spritzbrühe) | Wirkung (in %) Erysiphe graminis (Erysiphe graminis; 160 mg/l Spritzbrühe) | Wirkung (in %) Puccinia coronata (Puccinia coronata; 5 mg/l Spritzbrühe) | Wirkung (in %) Puccinia coronata (Puccinia coronata; 16 mg/l Spritzbrühe) | Wirkung (in %) Puccinia coronata (Puccinia coronata; 50 mg/l Spritzbrühe) | Wirkung (in %) Puccinia coronata (Puccinia coronata; 160 mg/l Spritzbrühe) | Wirkung (in %) Puccinia coronata (Puccinia coronata; 500 mg/l Spritzbrühe) | Wirkung (in %) Venturia inaequalis (Venturia inaequalis; 5 mg/l Spritzbrühe) | Wirkung (in %) Venturia inaequalis (Venturia inaequalis; 16 mg/l Spritzbrühe) | Wirkung (in %) Venturia inaequalis (Venturia inaequalis; 50 mg/l Spritzbrühe) | Wirkung (in %) Venturia inaequalis (Venturia inaequalis; 160 mg/l Spritzbrühe) | Wirkung (in %) Venturia inaequalis (Venturia inaequalis; 500 mg/l Spritzbrühe) | Wirkung (in %) Erysiphe graminis (Erysiphe graminis; 500 mg/l Spritzbrühe)
CC(Cc1ccc(C(C)(C)C)cc1)CN1CCC(=O)CC1 (stereo not shown) [1-[3-(p-tert.-Butyl-phenyl)-2-methyl-propyl]-4-piperidon] | 75% | 80% | 93% | 100% | 0% | 0% | 0% | 0% | 98% | 0% | 0% | 0% | 10% | 90% | 
CC(CN1CCCCC1)C(O)c1ccc(C(C)(C)C)cc1 (stereo not drawn) [α-(p-tert.-Butyl-phenyl)-β-methyl-1-piperidin-propanol] | 75% | 80% | 87% | 98% | 10% | 30% | 80% | 100% | 100% | 10% | 20% | 43% | 93% | 100% | 98%
CC(Cc1ccc(C(C)(C)C)cc1)CN1CCC2(CC1)OCCO2 (stereo not shown) [1-[3-(p-tert.-Butyl-phenyl)-2-methyl-propyl]-4,4-äthylendioxy-piperidin] | 30% | 50% | 70% | 85% | 90% | 95% | 100% | 100% | 100% |  |  |  |  | 20% | 
CC(Cc1ccc(C(C)(C)CCl)cc1)CN1CCCCC1 (stereo not shown) [1-/3-[p-(2-Chlor-1,1-dimethyl-äthyl)-phenyl]-2-methyl-propyl/-piperidin] | 45% | 70% | 80% | 97% | 30% | 65% | 85% | 100% | 100% | 0% | 20% | 30% | 90% | 95% | 100%
CCC(C)(C)c1ccc(CC(C)CN2CCC3(CC2)OCCO3)cc1 (stereo not shown) [1-[3-(p-tert.-Amyl-phenyl)-2-methyl-propyl]-4,4-äthylendioxy-piperidin] | 75% | 85% | 90% | 100% | 10% | 30% | 90% | 100% | 100% | 0% | 40% | 63% | 97% | 98% | 100%
CC(Cc1ccc(C(C)(C)CCl)cc1)CN1CC(C)CC(C)C1 (stereo not shown) [1-/3-[p-(2-Chlor-1,1-dimethyl-äthyl)-phenyl]-2-methyl-propyl/-3,5-dimethyl-piperidin] | 85% | 92% | 100% | 100% | 40% | 98% | 100% | 100% | 100% | 20% | 33% | 77% | 87% | 99% | 100%
CC(CN1CCC2(CC1)OCCO2)=C(C)c1ccc(C(C)(C)C)cc1 [1-[3-(p-tert.-Butyl-phenyl)-2,3-dimethyl-2-propenyl]-4,4-äthylendioxy-piperidin] | 80% | 98% | 98% | 100% | 98% | 100% | 100% | 100% | 100% | 0% | 0% | 20% | 37% | 83% | 100%
CCC(C)(C)c1ccc(C(C)=C(C)CN2CCC3(CC2)OCCO3)cc1 [1-[3-(p-tert.-Amyl-phenyl)-2,3-dimethyl-2-propenyl]-4,4-äthylendioxy-piperidin] | 75% | 90% | 90% | 98% | 20% | 98% | 100% | 100% | 100% | 0% | 0% | 10% | 10% | 95% | 
CC(CN1CCC(=O)CC1)=C(C)c1ccc(C(C)(C)C)cc1 [1-[3-(p-tert.-Butyl-phenyl)-2,3-dimethyl-2-propenyl]-4-piperidon] | 0% | 60% | 100% | 100% | 0% | 25% | 100% | 100% | 100% | 0% | 10% | 20% | 37% | 83% | 100%
CC(Cc1ccc(C(C)(C)CCl)cc1)CN1CC(C)OC(C)C1 (stereo not shown) [4-/3-[p-(2-Chlor-1,1-dimethyl-äthyl)-phenyl]-2-methyl-propyl/-2,6-dimethyl-morpholin] | 60% | 75% | 90% | 100% | 0% | 0% | 20% | 100% |  | 13% | 67% | 93% | 95% | 95% | 100%
